One may read the IC50 as the concentration that inhibits the measured activity by half.

Assay [1] deals with MMP-1 (Matrix Metalloproteinase-1) production in SW1353 human chondrosarcoma cells. The assay is described as follows: glucocorticoid inhibition of IL-1 induced MMP-1 production in human chondrosarcoma cells. The conditions noted are these: 20 ng/ml IL-1 beta, 72 hours after IL-1 addition, ELISA, read-out: IC50, inhibitor of MMP1 expression. It is filed as cell-based. The method, then:
(§1) This assay, the glucocorticoid inhibition of IL-1 (Interleukin-1) induced MMP-1 (Matrix Metalloproteinase-1) and IL-8 (Interleukin-8) production in human chondrosarcoma cells, is conducted as follows: SW1353 human chondrosarcoma cells (obtained from ATCC) from passage 12 through passage 19 are used in a 96 well format assay. Cells are plated at confluence into 96 well plates in DMEM (Dulbecco's Modified Eagle Medium) with 10% fetal bovine serum and incubated at 37° C., 5% CO2. After 24 hours, serum containing media is removed and replaced with 200 ul/well DMEM containing 1 mg/L insulin, 2 g/L lactalbumin hydrosylate, and 0.5 mg/L ascorbic acid and returned to incubation at 37° C., 5% CO2. […] IL-8 production is assessed using the Quantikine human IL-8 ELISA kit from R&D Systems (D8050) on samples diluted 60-fold in RD5P Calibrator Diluent, following the manufacturer's protocol. The percent of the average IL-1 control is determined for the average of each of the triplicate samples following subtraction of the average signal from untreated cells. IC50's are determined from log linear plots of the percent of control versus the concentration of inhibitor. […] MMP-1 production is assessed via the Bio-Trak MMP-1 ELISA kit from Amersham (RPN2610) on 100 ul of neat sample following the manufacturer's protocol. […]

The subject of assay [2] is IL-8 (Interleukin-8) production in SW1353 human chondrosarcoma cells. Description: glucocorticoid inhibition of IL-1 induced IL-8 production in human chondrosarcoma cells. It is filed as cell-based. As to conditions: 20 ng/ml IL-1 beta, 24 hours after addition of IL-1, ELISA, read-out: IC50, inhibitor of IL-8 expression. The method, then:
as §1
In general terms: ELISA stands for enzyme-linked immunosorbent assay.

Turning to `C[C@@H]1C[C@H]2[C@@H]3CCC4=CC(=O)C=C[C@]4(C)[C@@]3(F)[C@@H](O)C[C@]2(C)[C@@]1(O)C(=O)CO` [Dexamethasone, (11β, 16α)-9-fluoro-11,17,21-trihydroxy-16-methylpregna-1,4-diene-3,20-dione], the half-maximal inhibitory concentration (IC50) in assay [1] and in assay [2] was 5 nM throughout.

The values are drawn from US20020107235A1, “Glucocorticoid receptor modulators” (priority 2000, published 2002).
